According to ChEMBL document CHEMBL5214963, “Development of a penetratin-conjugated stapled peptide that inhibits Wnt/β-catenin signaling” (Bioorg Med Chem, 2022):
Values belong to the compound of their own block, whether it stands above or below them. The source made the active and inactive calls. The calls are words filed in the database; no cut-off is given here. *1 amine or outer side, *2 acyl side, *3 side chain or, on linkers, in order; H or OH if unused. Where a SMILES comes first, the peptide text is derived from it. Bridges are numbered along the chain shown (N, C = ends). [ ]: non-standard residue; d: D form. Nle(6-ylidene) = O=C([C@H](CCCC=[*:3])N[*:1])[*:2]; Nle = CCCC[C@H](N)C(=O)O; βAla = NCCC(=O)O

Legend:
[1] = Stability of the compound in proteinase K (unknown origin) assessed as remaining parent compound at 100 uM measured after 480 mins by HPLC analysis; type: ADME; conditions: read-out: Stability
DLD-1 [2] = assay: Cytotoxicity against human DLD-1 cells assessed as cell growth inhibition at 20 uM incubated for 5 days by CellTiter-Glo reagent based microplate reader analysis; type: functional; conditions: time 5.0 day
HEK293 [3] = assay: (§1) Inhibition of Wnt/beta-catenin transactivation signalling in Wnt3a stimulated human HEK293 cells harbouring TCF/LEF luciferase reporter gene assessed as inhibition TCF-beta-catenin complex formation by measuring luminescence level at 20 uM preincubated for 15 hrs followed by recombinant mouse Wnt-3a addition and measured after 5 hrs by luminescence based microplate reader analysis; type: cell-based; conditions: time 20.0 hrs
A549 [4] = assay: Cytotoxicity against human A549 cells assessed as cell growth inhibition at 20 uM incubated for 5 days by CellTiter-Glo reagent based microplate reader analysis; type: functional; conditions: time 5.0 day
A549 [5] = assay: Cytotoxicity against human A549 cells assessed as cell growth inhibition at 20 uM incubated for 24 hrs by CellTiter-Glo reagent based microplate reader analysis; type: functional
DLD-1 [6] = assay: Cytotoxicity against human DLD-1 cells assessed as reduction in cell growth at 20 uM incubated for 24 hrs by CellTiter-Glo reagent based microplate reader analysis; type: functional
HEK293 [7] = assay: as §1, with “50” for “20”; type: cell-based; conditions: time 20.0 hrs
HEK293 [8] = assay: as §1, with “level at 0.1 to 20 uM” for “level at 20 uM”; type: cell-based; conditions: dose 0.1-20 µM, time 20.0 hrs, DDE = dose-dependent effect

remaining at 8 h, 100 µM [1]: 0.1%
Compound: CC(C)C[C@H](NC(=O)[C@H](C)NC(=O)[C@H](C)NC(=O)CCN)C(=O)N[C@@H](CC(C)C)C(=O)N[C@@H](CC(=O)O)C(=O)N[C@@H](Cc1ccc(O)cc1)C(=O)N[C@H](C(=O)N[C@@H](CS)C(=O)N[C@@H](CC(N)=O)C(=O)N[C@@H](Cc1ccc(O)cc1)C(=O)O)[C@@H](C)O (H-[βAla]AALLDYTCNY-OH)

Compound: CC[C@H](C)[C@@H]1NC(=O)[C@@H](NC(=O)[C@H](CCCNC(=N)N)NC(=O)[C@@H]2CCCN2C(=O)[C@H](Cc2c[nH]c3ccccc23)NC(=O)[C@H](CCCNC(=N)N)NC(=O)[C@H](CCCNC(=N)N)NC(C)=O)CCC/C=C\CCC[C@@H](C(=O)N[C@@H](Cc2cnc[nH]2)C(=O)N[C@H](C(=O)N[C@@H](CCCNC(=N)N)C(=O)N[C@@H](CCCNC(=N)N)C(=O)N[C@H](C(=O)N[C@@H](Cc2c[nH]c3ccccc23)C(=O)N[C@@H](CCCNC(=N)N)C(=O)O)C(C)C)C(C)C)NC(=O)[C@H](CC(=O)O)NC(=O)[C@H](CC(C)C)NC1=O (Ac-RRWPR[Nle(6-ylidene)]ILD[Nle(6-ylidene)]HVRRVWR-OH; staple (Z) 6-10)
Activity (DLD-1 [2]): Active
inhibition (HEK293 [3]): Active
Activity (A549 [4]): Active

Compound: CCCC[C@H](NC(=O)[C@@H]1CCC/C=C\CCC[C@H](NC[C@H](C)NC(=O)[C@H](C)NC(=O)CCNC(=O)[C@H](CCC(N)=O)NC(=O)[C@@H]2CCCN2C(=O)[C@@H]2CCCN2C(=O)[C@H](CCCNC(=N)N)NC(=O)[C@H](CCCNC(=N)N)NC(=O)[C@H](CCCNC(=N)N)NC(=O)[C@H](CCC(N)=O)NC(=O)[C@H](CCCNC(=N)N)NC(=O)[C@H](CCCNC(=N)N)NC(=O)[C@H](CCCCN)NC(=O)[C@H](CCCCN)NC(=O)[C@H](CCCNC(=N)N)NC(=O)CN)C(=O)N[C@@H](CC(C)C)C(=O)N[C@@H](CC(=O)O)C(=O)N[C@@H](Cc2ccc(O)cc2)C(=O)N1)C(=O)N[C@@H](CS)C(=O)N[C@@H](CC(N)=O)C(=O)N[C@@H](Cc1ccc(O)cc1)C(=O)O
Activity (A549 [5]): Active
Activity (DLD-1 [6]): Active

remaining at 8 h, 100 µM [1]: 65%
Compound: CCCC[C@H](NC(=O)[C@@H]1CCC/C=C\CCC[C@H](NC(=O)[C@H](C)NC(=O)[C@H](C)NC(=O)CCN)C(=O)N[C@@H](CC(C)C)C(=O)N[C@@H](CC(=O)O)C(=O)N[C@@H](Cc2ccc(O)cc2)C(=O)N1)C(=O)N[C@@H](CS)C(=O)N[C@@H](CC(N)=O)C(=O)N[C@@H](Cc1ccc(O)cc1)C(=O)O (H-[βAla]AA[Nle(6-ylidene)]LDY[Nle(6-ylidene)][Nle]CNY-OH; staple (Z) 4-8)

Compound: O=C(Nc1cccc2cccnc12)c1ccc(N2C(=O)[C@@H]3[C@H](C2=O)[C@@H]2C=C[C@H]3C2)cc1
inhibition (HEK293 [7]): Active

Compound: CCCC[C@H](NC(=O)[C@@H]1CCC/C=C\CCC[C@H](NC(=O)[C@H](C)NC(=O)[C@H](C)NC(=O)CCNC(=O)[C@H](CCCCN)NC(=O)[C@H](CCCCN)NC(=O)[C@H](Cc2c[nH]c3ccccc23)NC(=O)[C@H](CCCCN)NC(=O)[C@H](CCSC)NC(=O)[C@H](CCCNC(=N)N)NC(=O)[C@H](CCCNC(=N)N)NC(=O)[C@H](CC(N)=O)NC(=O)[C@H](CCC(N)=O)NC(=O)[C@H](Cc2ccccc2)NC(=O)[C@H](Cc2c[nH]c3ccccc23)NC(=O)[C@@H](NC(=O)[C@H](CCCCN)NC(=O)[C@@H](NC(=O)[C@H](CCC(N)=O)NC(=O)[C@@H](N)CCCNC(=N)N)[C@@H](C)CC)[C@@H](C)CC)C(=O)N[C@@H](CC(C)C)C(=O)N[C@@H](CC(=O)O)C(=O)N[C@@H](Cc2ccc(O)cc2)C(=O)N1)C(=O)N[C@@H](CS)C(=O)N[C@@H](CC(N)=O)C(=O)N[C@@H](Cc1ccc(O)cc1)C(=O)O
inhibition (HEK293 [8]): Dde
Activity (DLD-1 [2]): Active
Activity (A549 [5]): Active
Activity (DLD-1 [6]): Active
Activity (A549 [4]): Active

Compound: CCCC[C@H](NC(=O)[C@@H]1CCC/C=C\CCC[C@H](NC(=O)[C@H](C)NC(=O)[C@H](C)NC(=O)CCNC(=O)[C@H](CCCNC(=N)N)NC(=O)[C@H](CCCNC(=N)N)NC(=O)[C@H](CCCNC(=N)N)NC(=O)[C@H](CCCNC(=N)N)NC(=O)[C@H](CCCNC(=N)N)NC(=O)[C@H](CCCNC(=N)N)NC(=O)[C@H](CCCNC(=N)N)NC(=O)[C@@H](N)CCCNC(=N)N)C(=O)N[C@@H](CC(C)C)C(=O)N[C@@H](CC(=O)O)C(=O)N[C@@H](Cc2ccc(O)cc2)C(=O)N1)C(=O)N[C@@H](CS)C(=O)N[C@@H](CC(N)=O)C(=O)N[C@@H](Cc1ccc(O)cc1)C(=O)O
Activity (A549 [5]): Active
Activity (DLD-1 [6]): Active
